Like-named read-outs stand apart in the source and are kept apart here.
Assays:
[1] = system: mTORC2 activity: phosphorylated AKT Ser473 (pAKT S473) in PC3 cells; test: mTOR target engagement assay, immunofluorescent cell-based, mTORC2 readout; conditions: 90 min treatment
In short: (§1)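 Read-out is immunofluorescence intensity, normalized to DMSO-only wells and fitted to a sigmoidal Hill equation for IC50. The mTORC1 arm probes phospho-4E-BP1 Thr37/46 and the mTORC2 arm phospho-AKT Ser473.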

human mTOR enzyme = human mTOR enzyme (Homo sapiens, UniProt P42345); test: HTRF mTOR enzyme (kinase) assay; assay type: biochemical; conditions: 5 μM ATP, 0.2 μM GST-S6K, read-out: hMTOR IC50
Chain of human mTOR enzyme (P42345 1360-2549 limits assumed): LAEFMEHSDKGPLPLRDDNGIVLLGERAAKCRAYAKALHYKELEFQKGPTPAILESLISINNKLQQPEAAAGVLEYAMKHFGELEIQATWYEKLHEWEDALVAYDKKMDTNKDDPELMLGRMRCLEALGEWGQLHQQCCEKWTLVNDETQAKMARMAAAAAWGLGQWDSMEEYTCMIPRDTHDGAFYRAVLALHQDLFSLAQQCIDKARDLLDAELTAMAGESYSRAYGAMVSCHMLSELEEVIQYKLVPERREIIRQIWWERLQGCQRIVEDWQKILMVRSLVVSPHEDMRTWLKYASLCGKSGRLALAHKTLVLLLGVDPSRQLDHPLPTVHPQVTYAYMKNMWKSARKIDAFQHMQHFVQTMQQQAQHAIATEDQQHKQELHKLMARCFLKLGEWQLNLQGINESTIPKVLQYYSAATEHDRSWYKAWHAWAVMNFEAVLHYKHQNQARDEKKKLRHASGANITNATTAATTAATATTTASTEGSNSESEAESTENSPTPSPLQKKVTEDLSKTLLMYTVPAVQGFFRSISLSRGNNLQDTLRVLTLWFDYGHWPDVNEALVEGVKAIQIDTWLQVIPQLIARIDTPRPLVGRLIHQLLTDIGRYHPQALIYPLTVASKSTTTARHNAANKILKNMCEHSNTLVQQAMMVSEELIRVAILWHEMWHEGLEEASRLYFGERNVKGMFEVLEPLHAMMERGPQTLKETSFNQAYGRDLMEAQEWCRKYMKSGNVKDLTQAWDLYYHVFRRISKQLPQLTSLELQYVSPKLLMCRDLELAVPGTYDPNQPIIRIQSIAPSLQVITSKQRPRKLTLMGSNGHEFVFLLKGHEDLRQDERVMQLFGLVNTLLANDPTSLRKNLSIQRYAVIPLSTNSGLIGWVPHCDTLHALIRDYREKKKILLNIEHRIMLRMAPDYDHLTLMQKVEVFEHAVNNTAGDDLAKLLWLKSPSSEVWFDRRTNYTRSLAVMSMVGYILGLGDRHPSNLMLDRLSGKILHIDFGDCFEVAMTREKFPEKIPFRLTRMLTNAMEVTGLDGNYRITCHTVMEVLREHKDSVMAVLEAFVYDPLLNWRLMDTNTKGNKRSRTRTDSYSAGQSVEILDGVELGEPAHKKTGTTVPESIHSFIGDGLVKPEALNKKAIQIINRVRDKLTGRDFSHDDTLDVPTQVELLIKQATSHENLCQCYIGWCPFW

[2] = system: mTORC1 activity: phosphorylated 4E-BP1 Thr37/46 (p4E-BP1 Thr37/46) in PC3 cells; test: mTOR target engagement assay, immunofluorescent cell-based, mTORC1 readout; conditions: 90 min treatment, read-out: P4EBP1 IC50
In short: as §1

[3] = Homo sapiens, PC-3, 1.5 h, rated class

Compound: C[C@]1(C(=O)O)CC[C@H](c2nc3c(-c4ccc(-c5ccccc5)nc4)cnn3c(N)c2Br)CC1 [Compound 1, (1R,4R)-4-(7-amino-6-bromo-3-(6-phenylpyridin-3-yl)pyrazolo[1,5-a]pyrimidin-5-yl)-1-methylcyclohexanecarboxylic acid]
- IC50 ([1]; numeric value): 275 nM
- IC50 (human mTOR enzyme; numeric value): 1.33 nM
- IC50 ([2]; numeric value): 850 nM

Compound: COCCO[C@]1(C(=O)NOCCO)CC[C@@H](c2nc3c(-c4cnn(-c5ccccc5)c4)cnn3c(N)c2S(C)(=O)=O)CC1 [Compound 100]
- IC50 [1, 3]: 1 to 100 nM
- IC50 (human mTOR enzyme; rated class): 1 to 100 nM
- IC50 [2, 3]: 1 to 100 nM

Compound: COCCO[C@]1(C(=O)O)CC[C@@H](c2nc3c(-c4cnn(-c5ccccc5)c4)cnn3c(N)c2S(C)(=O)=O)CC1 [Compound 40, (1R,4R)-4-(7-amino-6-(methylsulfonyl)-3-(1-phenyl-1H-pyrazol-4-yl)pyrazolo[1,5-a]pyrimidin-5-yl)-1-(2-methoxyethoxy)cyclohexanecarboxylic acid]
- IC50 [1, 3]: 1 to 100 nM
- IC50 (human mTOR enzyme; rated class): 1 to 100 nM
- IC50 [2, 3]: 100 to 1000 nM

Compound: COCCO[C@]1(C#N)CC[C@@H](c2nc3c(-c4cnn(-c5ccccc5)c4)cnn3c(N)c2S(C)(=O)=O)CC1 [Compound 117, (1R,4R)-4-(7-amino-6-(methylsulfonyl)-3-(1-phenyl-1H-pyrazol-4-yl)pyrazolo[1,5-a]pyrimidin-5-yl)-1-(2-methoxyethoxy)cyclohexanecarbonitrile]
- IC50 [1, 3]: 100 to 1000 nM
- IC50 (human mTOR enzyme; rated class): 1 to 100 nM
- IC50 [2, 3]: 1000 to 2000 nM

Compound: CO[C@]1(C(=O)O)CC[C@@H](c2nc3c(-c4cnn(-c5ccccc5)c4)cnn3c(N)c2C(C)=O)CC1 [Compound 36, (1R,4R)-4-(6-acetyl-7-amino-3-(1-phenyl-1H-pyrazol-4-yl)pyrazolo[1,5-a]pyrimidin-5-yl)-1-methoxycyclohexane-carboxylic acid]
- IC50 [1, 3]: 1 to 100 nM
- IC50 (human mTOR enzyme; rated class): 1 to 100 nM
- IC50 [2, 3]: 100 to 1000 nM

Compound: Nc1c(Br)c([C@H]2CC[C@@](O)(CC(=O)O)CC2)nc2c(-c3ccc(-c4ccccc4)nc3)cnn12 [Compound 76, 2-((1R,4R)-4-(7-amino-6-bromo-3-(6-phenylpyridin-3-yl)pyrazolo[1,5-a]pyrimidin-5-yl)-1-hydroxycyclohexyl)acetic acid]
- IC50 [1, 3]: 100 to 1000 nM
- IC50 (human mTOR enzyme; rated class): 1 to 100 nM
- IC50 [2, 3]: 100 to 1000 nM

Compound: COCCO[C@]1(c2nnc(C)o2)CC[C@@H](c2nc3c(-c4cnn(-c5ccccc5)c4)cnn3c(N)c2S(C)(=O)=O)CC1 [Compound 109]
- IC50 [1, 3]: 100 to 1000 nM
- IC50 (human mTOR enzyme; rated class): 1 to 100 nM
- IC50 [2, 3]: 2000 to 5000 nM

Compound: COCCO[C@]1(C(=O)CO)CC[C@@H](c2nc3c(-c4cnn(-c5ccccc5)c4)cnn3c(N)c2S(C)(=O)=O)CC1 [Compound 129, 1-((1R,4R)-4-(7-amino-6-(methylsulfonyl)-3-(1-phenyl-1H-pyrazol-4-yl)pyrazolo[1,5-a]pyrimidin-5-yl)-1-(2-methoxyethoxy)cyclohexyl)-2-hydroxyethanone]
- IC50 [1, 3]: 1 to 100 nM
- IC50 (human mTOR enzyme; rated class): 1 to 100 nM
- IC50 [2, 3]: 100 to 1000 nM

Compound: COCCO[C@]1(C(=O)NO)CC[C@@H](c2nc3c(-c4ccc(-c5ncc[nH]5)nc4)cnn3c(N)c2C(C)=O)CC1 [Compound 115, (1R,4R)-(3-(6-(1H-imidazol-2-yl)pyridin-3-yl)-6-acetyl-7-aminopyrazolo[1,5-a]pyrimidin-5-yl)-N-hydroxy-1-(2-methoxyethoxy)cyclohexane carboxamide]
- IC50 [1, 3]: 1 to 100 nM
- IC50 (human mTOR enzyme; rated class): 1 to 100 nM
- IC50 [2, 3]: 1 to 100 nM

Compound: COCCO[C@]1(C(=O)NO)CC[C@@H](c2nc3c(-c4ccc(-c5ccccc5)nc4)cnn3c(N)c2S(C)(=O)=O)CC1 [Compound 104, (1R,4R)-4-(7-amino-6-(methylsulfonyl)-3-(6-phenylpyridin-3-yl)pyrazolo[1,5-a]pyrimidin-5-yl)-N-hydroxy-1-(2-methoxyethoxy)-cyclohexane-carboxamide]
- IC50 [1, 3]: 1 to 100 nM
- IC50 (human mTOR enzyme; rated class): 1 to 100 nM
- IC50 [2, 3]: 1 to 100 nM

Compound: COCCO[C@]1(c2nnn[nH]2)CC[C@@H](c2nc3c(-c4cnn(-c5ccccc5)c4)cnn3c(N)c2S(C)(=O)=O)CC1 [Compound 118, 5-((1R,4R)-4-(2-methoxyethoxy)-4-(1H-tetrazol-5-yl)cyclohexyl)-6-(methylsulfonyl)-3-(1-phenyl-1H-pyrazol-4-yl)pyrazolo[1,5-a]pyrimidin-7-amine]
- IC50 [1, 3]: 100 to 1000 nM
- IC50 (human mTOR enzyme; rated class): 1 to 100 nM
- IC50 [2, 3]: 100 to 1000 nM

Compound: CC(=O)c1c(N)n2ncc(-c3ccc(-c4ccccc4)nc3)c2nc1[C@H]1CC[C@](O)(CS(C)(=O)=O)CC1 [Compound 162, 1-(7-amino-5-((1S,4S)-4-hydroxy-4-(methylsulfonylmethyl)cyclohexyl)-3-(6-phenylpyridin-3-yl)pyrazolo[1,5-a]pyrimidin-6-yl)ethanone]
- IC50 [1, 3]: 1 to 100 nM
- IC50 (human mTOR enzyme; rated class): 1 to 100 nM
- IC50 [2, 3]: 100 to 1000 nM

Compound: COCCO[C@]1(C(=O)O)CC[C@@H](c2nc3c(-c4ccc(-c5ccc(OC)c(F)c5)nc4)cnn3c(N)c2Br)CC1 [Compound 68, (1R,4R)-4-(7-amino-6-bromo-3-(6-(3-fluoro-4-methoxyphenyl)-pyridin-3-yl)-pyrazolo[1,5-a]pyrimidin-5-yl)-1-(2-methoxyethoxy) cyclohexanecarboxylic acid]
- IC50 [1, 3]: 2000 to 5000 nM
- IC50 (human mTOR enzyme; rated class): 1 to 100 nM
- IC50 [2, 3]: 2000 to 5000 nM

Compound: COCCO[C@]1(C(=O)O)CC[C@@H](c2nc3c(-c4ccc(-c5ccccn5)nc4)cnn3c(N)c2S(C)(=O)=O)CC1 [Compound 50, (1R,4R)-4-(3-(2,2′-bipyridin-5-yl)-7-amino-6-(methylsulfonyl)-pyrazolo[1,5-a]-pyrimidin-5-yl)-1-(2-methoxyethoxy)-cyclohexanecarboxylic acid]
- IC50 [1, 3]: 100 to 1000 nM
- IC50 (human mTOR enzyme; rated class): 1 to 100 nM
- IC50 [2, 3]: 100 to 1000 nM

Compound: COCCO[C@]1(C(=O)c2nnc[nH]2)CC[C@@H](c2nc3c(-c4cnn(-c5ccccc5)c4)cnn3c(N)c2S(C)(=O)=O)CC1 [Compound 122, ((1R,4R)-4-(7-amino-6-(methylsulfonyl)-3-(1-phenyl-1H-pyrazol-4-yl)pyrazolo[1,5-a]pyrimidin-5-yl)-1-(2-methoxyethoxy)cyclohexyl)(4H-1,2,4-triazol-3-yl)methanone]
- IC50 [1, 3]: 1 to 100 nM
- IC50 (human mTOR enzyme; rated class): 1 to 100 nM
- IC50 [2, 3]: 1 to 100 nM

From patent publication US8883801B2, “Substituted pyrazolo[1,5-a]pyrimidines as mTOR inhibitors” (Merck Sharp & Dohme Corp., priority 2010, dated 2014)
